Columns and labels:
[1] = system: cancer cell lines; details: wide variety of cancer cell lines, in vitro; cited from earlier work
[2] = system: plasma methionine; experiment: Plasma methionine depletion following intravenous injection of naked and PEGylated rMETase, with or without PLP pump; assay type: in vivo, Athymic nude (nu/nu) mice; details: for Max. Period of MET depletion below 5 μM, PLP+: with PLP supplementation from s.c. mini-osmotic pump; for Period of plasma methionine depletion below 5 μM relative to naked rMETase: fold longer than naked rMETase; for PLP dependence (ratio of plasma methionine PLP− versus PLP+): ratios at various time points, FIG. 8
Procedure: The methionine level in the plasma was measured by pre-column derivitization, followed by HPLC separation (Jones, B. N., and Gilligan, J. P., J. Chromatogr. (1983) 266:471-482). Briefly, 10 μl of plasma sample or methionine standard was precipitated with 30 μl of acetonitrile, followed by centrifugation at 10,000 rpm for 5 minutes. 10 μl of the supernatant was mixed with 5 μl of a fluoraldehyde derivative reagent, o-phthaldialdehyde, for 1 minute at room temperature, followed by addition of 150 μl of 0.1 M sodium acetate, pH 7.0. 20 μl of the reaction mixture was loaded on a reversed-phase Supelcosil™ LC-18DB column (25 cm×[…], particle size 5 μm (Supelco, Bellefonte, Pa., USA). The amino acid derivatives were separated by using a gradient elution of 40-60% solution B (Methanol) in solution A (tetrahydrofuran/methanol/0.1M sodium acetate. pH 7.2; 5/95/900) at a flow rate of 1.5 ml/minute. A fluorescence spectrophotometer was used for detection: excitation at 350 nm and emission at 450 nm. The plasma methionine was identified by the retention time of a methionine standard solution and quantitated according to a methionine standard curve.
(§1) Athymic nude (nu/nu) mice aged 4 weeks (20-25 g) were used for the study with 4 mice per group. Osmotic mini-pumps filled with 250 μl PLP (0.5 g/ml) were implanted subcutaneously. Twenty-four hours after pump implantation, 80 units of native rMETase or PEG-rMETase in 0.5 ml PBS, pH 7.4, were injected via the tail vein in mice with or without PLP pumps. 400 μl of blood was collected from the retroorbital plexus of each animal using heparinized capillary tubes. Blood was collected prior to injection, and 1, 2, 4, 8, 24, 48, 72, 96 and 120 hours post injection. The plasma was separated and stored in small aliquots at −80° C. The plasma enzyme activity, methionine concentration and PLP level in the plasma, collected at the different time points, were measured as described above.
(§2) 80 U of naked or PEGylated rMETase were injected i.v. in each mouse with or without PLP supplementation. Blood samples were collected at different time points and measured for enzyme activity and methionine concentration as described in the Materials and Methods. Plasma half-life was calculated from the plasma enzyme concentration-time profiles (FIG. 4). Maximum period of methionine depletion below 5 μM is calculated from the plasma methionine levels in FIGS. 5 and 7.
The mice were injected i.v. with 80 U of naked or the indicated PEGylated rMETase. Blood samples were collected at different time points and measured for plasma methionine concentration as described above.
In these experiments, 80 U of naked or PEGylated rMETase was injected intravenously in animals with and without PLP supplementation from implanted mini-osmotic pumps. Blood samples were taken at different time points and measured for plasma methionine concentration. […] The plasma methionine levels depleted by the three PEGylated rMETase conjugates were maintained below 2 μM for 48 hours and below 4 μM for 72 hours in case of PEG/rMETase 120 with PLP supplementation (Table 3). At 120 hours after injection of PEG/rMETase, the plasma methionine level depleted by PEG/rMETase 30, PEG/rMETase 60 and PEG/rMETase 120 still remained at 40%, 57% and 22% of normal baseline, respectively (Table 3).

[3] = Pharmacokinetics: plasma enzyme activity following intravenous injection of naked and PEGylated rMETase in mice; assay type: in vivo, Athymic nude (nu/nu) mice; details: for Plasma half-life in mice: 80 U i.v. per mouse, calculated from plasma enzyme activity-time profiles; for Plasma enzyme activity detectable until: 80 units per mouse i.v.
Procedure: rMETase activity was determined from α-ketobutyrate produced from L-methionine according to the method of Tanaka, H., et al., Biochemistry (1977) 16:100-106, with slight modification. 0.5 ml of sample diluted in 100 mM potassium phosphate buffer pH 8.0, containing 0.01% DTT, 1 mM EDTA Nae, 10 μM PLP and 0.05% Tween 80, was mixed with 0.5 ml of substrate solution containing 100 mM potassium phosphate buffer, pH 8.0, containing 25 mM L-methionine and 10 μM PLP in a glass test tube. The reaction mixture was vortexed immediately and incubated at 37° C. without shaking for precisely 10 minutes. The reaction was stopped by adding 0.5 ml of 50% TCA. The suspension was centrifuged at 13,000 rpm for 2 minutes. The supernatant (0.5 ml) was collected in a glass tube containing 1 ml 1 M acetate buffer, pH 5.0. Then, 0.4 ml MBTH solution containing 0.1% 3-methyl-2-benzothiazolinonehydrazone dihydrochloride monohydrate (Wako Pure Chemical, Osaka, Japan) was added to the tube, mixed well and incubated at 50° C. for 30 minutes. The absorbance of the reaction mixture was measured at 320 nm. The assay was carried out in triplicate. ΔE was calculated by subtracting the average absorbance of blanks from the average absorbance of the reaction mixture. The enzyme activity was calculated by the following equation: Activity (U/ml)=0.548 (1.07+2.2ΔE) ΔE. One unit of enzyme is defined as the amount of enzyme which produced 1 μM of α-ketobutyrate per minute at an infinite concentration of L-methionine.
as §1
The mice were injected intravenously with 80 U naked or the indicated PEGylated rMETase. Blood samples were collected at different time points and measured for plasma enzyme activity as described above.
as §2

[4] = system: plasma anti-rMETase specific antibody; experiment: Plasma anti-rMETase antibody titer by sandwich ELISA after immunization with FCA; assay type: in vivo, BALB/c male mice; details: mice immunized i.p. with 200 μg in FCA; figures in parentheses = numbers of mice
Procedure: BALB/c male mice were grouped randomly at 5 per group. Each mouse received three i.p. injections of 0.2 ml (200 μg) naked or PEG-rMETase emulsified in Freund's complete adjuvant (FCA) at weekly intervals. Two weeks following the last injection, a booster injection of the rMETase or PEG-rMETase was given to each mouse. Blood samples were collected two weeks after the booster injection, and plasma was separated and stored at −80° C.
Plasma anti-rMETase antibody was measured using a sandwich ELISA technique. 100 μl 200 μg/ml rMETase in 0.1 M carbonate coating buffer, pH 9.5, was added to each well of a 96-well microplate and incubated at 4° C. overnight. The plate was washed three times with PBS washing buffer, pH 7.4, containing 0.05% Tween-20, and blocked for 2 hours at room temperature with 200 μl of PBS assay buffer, pH 7.4, containing 10% FBS. After washing three times, 100 μl of 10-fold serial dilutions of the plasma samples in PBS assay buffer were added to appropriate wells and incubated for 2 hours at room temperature, followed by washing. 100 μl optimally diluted goat anti-mouse IgG and IgM subtypes conjugated with horseradish peroxidase (SIGMA, St. Louis, Mo., USA) were added to each well. The plate was incubated for 1 hour at room temperature and washed three times. 100 μl substrate solution containing O-phenylenediamine dihydrochloride (OPD) and hydrogen peroxide (SIGMA, St. Louis, Mo., USA) were added to each well, followed by 30 min incubation at room temperature. 50 μl 2N sulfuric acid were added to each well to stop the color reaction. The absorbance of each well was measured at 492 nm. The antibody titer was determined as the highest plasma dilution at which the extinction at 492 nm generated in the well of the immune plasma exceeded twice the extinction generated in those wells with negative control plasma.
IgG and IgM anti-rMETase antibody titers of the plasma of the mice immunized with naked or indicated PEGylated rMETase in the presence of FCA were determined using ELISA as described in the Materials and Methods. […]

[5] = literature comparison; cited from earlier work
[6] = 80 U i.v., without PLP supplementation
[7] = 80 U i.v., with PLP supplementation

Substance	IC50 in cancer cell lines compared to non-neoplastic cells [1]	Plasma methionine level reached within 1 hour ([2]; 80 U i.v., baseline 40 μM, without PLP supplementation)	Max. Period of MET depletion below 5 μM, PLP+ ([2]; 80 U i.v.) [h]	Max. Period of MET depletion below 5 μM, PLP− [2, 6] [h]	Plasma half-life in mice [3] [h]	Plasma anti-rMETase specific IgM antibody titer [4]	Plasma methionine level at 120 hours after injection, of normal baseline [2, 7] [%]	Period of plasma methionine depletion below 5 μM relative to naked rMETase [2, 6] [fold]	Plasma enzyme activity detectable until [3] [h]	PLP dependence (ratio of plasma methionine PLP− versus PLP+) [2]	Plasma methionine level maintained for 72 hours [2, 7]	Plasma half-life [5] [h]
L-methionine α-deamino-γ-mercaptomethane lyase [Naked rMETase]	several-fold less	less than 5 μM	4	4	–	–	–	–	–	–	–	–
PEG/rMETase 30: rMETase conjugated with MEGC-PEG-5000 at molar ratio PEG/rMETase of 30/1	–	–	48	8	12	10^−3 (5)	40	2	–	–	–	–
PEG/rMETase 60: rMETase conjugated with MEGC-PEG-5000 at molar ratio PEG/rMETase of 60/1	–	–	48	24	18	10^−3 (5)	57	6	72	lesser PLP dependence than PEG/rMETase 30	–	–
PEG/rMETase 120: rMETase conjugated with MEGC-PEG-5000 at molar ratio PEG/rMETase of 120/1	–	–	72	48	38	10^−3 (5)	22	12	72	lesser PLP dependence than PEG/rMETase 30	below 4 μM	–
PEGylated rMETase with M-SPA-PEG: Literature rMETase PEGylated with M-SPA-PEG, comparison for half-life	–	–	–	–	–	–	–	–	–	–	–	0.667
